Experiments:
Assay type in all cases: cell-based
Pseudomonas aeruginosa [1] = assay: MIC and synergistic index of MIT + BBIT in Müller-Hinton broth, 72 h/25° C.; settings: for Synergistic index Qa/QA + Qb/QB: BBIT MIC of 500 ppm used as basis; for MIC value: only one biocide employed
Method: (§1) The synergistic index is calculated by the method of F. C. Kull et al., Applied Microbiology, vol. 9 (1961), p. 538. Here, the synergistic index is calculated using the following formula: Synergistic index SI=Qa/QA+Qb/QB.
(§2) If the synergistic index has a value of above 1, this means that antagonism is present. If the synergistic index assumes a value of 1, this means that an additive effect of the two biocides exists. If the synergistic index assumes a value of less than 1, this means that synergism of the two biocides exists.
(§3) Again, the experimental batches contained a Müller-Hinton broth as the nutrient medium. The cell density was 10^6 cells/ml. The incubation time was 72 hours at 25° C. Each sample was incubated in a shaker-incubator at 120 rpm.

Pseudomonas aeruginosa [2] = assay: MIC and synergistic index of MIT + BNP in Müller-Hinton broth, 72 h/25° C.; settings: for MIC: Pseudomonas aeruginosa
Method: as §1, §2, §3

Pseudomonas aeruginosa [3] = assay: MIC and synergistic index of MIT + HCHO in Müller-Hinton broth, 96 h/25° C.; settings: for MIC: Pseudomonas aeruginosa; for Synergistic index Qa/QA + Qb/QB: method of Kull
Method: In addition to the biocide component and water, the aqueous mixtures also comprised a nutrient medium, viz. a commercially available Müller-Hinton broth. The cell density was 10^6 cells/ml. The incubation time was 96 hours at 25° C. Each sample was incubated in a shaker-incubator at 120 rpm.
as §1, §2

Pseudomonas aeruginosa [4] = assay: MIC and synergistic index of MIT + PMG in Müller-Hinton broth, 48 h/25° C.; settings: for MIC value: only one biocide employed
Method: as §1, §2
Again, the experimental batches contained a Müller-Hinton broth as the nutrient medium. The cell density was 10^6 cells/ml. The incubation time was 48 hours at 25° C. Each sample was incubated in a shaker-incubator at 120 rpm.

Pseudomonas aeruginosa [5] = assay: MIC and synergistic index of MIT + OPP in Müller-Hinton broth, 72 h/25° C.; settings: for MIC: Pseudomonas aeruginosa, 72 h
Method: as §1, §2, §3

Pseudomonas aeruginosa [6] = assay: MIC and synergistic index of MIT + ZnPy in Müller-Hinton broth, 72 h/25° C.; settings: for MIC value: only one biocide employed
Method: as §1, §2, §3

Pseudomonas aeruginosa [7] = assay: MIC and synergistic index of MIT + NaPy in Müller-Hinton broth, 96 h/25° C.; settings: for MIC value: only one biocide employed
Method: as §1, §2
Again, the experimental batches contained a Müller-Hinton broth as the nutrient medium. The cell density was 10^6 cells/ml. The incubation time was 96 hours at 25° C. Each sample was incubated in a shaker-incubator at 120 rpm.

Pseudomonas aeruginosa [8] = assay: MIC and synergistic index of MIT + HMBIT in Müller-Hinton broth, 48 h/30° C.; settings: for MIC value: biocide used alone, 48 hours at 30° C.
Method: as §1, §2
Again, the experimental batches contained a Müller-Hinton broth as nutrient medium. The cell density was 10^6 microorganisms/ml. […] Each sample was incubated in a shaker-incubator at 120 rpm.

Pseudomonas aeruginosa [9] = assay: MIC and synergistic index of MIT + BAC in Müller-Hinton broth, 48 h/25° C.; settings: for MIC value: biocide used alone
Method: as §1, §2
Again, the experimental batches contained a Müller-Hinton broth as nutrient medium. The cell density was 10^6 microorganisms/ml. The incubation time was 48 hours at 25° C. Each sample was incubated in a shaker-incubator at 120 rpm.

[10] = Pseudomonas aeruginosa, incubation 48 h/25° C.

CCCCn1sc2ccccc2c1=O [BBIT, N-butyl-1,2-benzoisothiazolin-3-one]
MIC at Total concentration MIT + BBIT Qa + Qb (Pseudomonas aeruginosa [1]): 500 ppm | Synergistic index Qa/QA + Qb/QB (Pseudomonas aeruginosa [1]): 1.00 | Qb/QB (Pseudomonas aeruginosa [1]; QB = 500 ppm used as basis): 1.00 | MIC at BBIT concentration Qb (Pseudomonas aeruginosa [1]; for BBIT alone 500 ppm used as the basis for the calculation): 500 ppm | MIC value (Pseudomonas aeruginosa [1]): over 500 ppm

O=[N+]([O-])C(Br)(CO)CO [BNP, 2-bromo-2-nitro-1,3-propanediol]
Qb/QB (Pseudomonas aeruginosa [2]): 1.00 | Synergistic index Qa/QA + Qb/QB (Pseudomonas aeruginosa [2]): 1.00 | MIC (Pseudomonas aeruginosa [2]; only one biocide employed, read-out: MIC value): 20 µg/mL | MIC (Pseudomonas aeruginosa [2]; read-out: MIC at BNP concentration Qb): 20 µg/mL | MIC (Pseudomonas aeruginosa [2]; read-out: MIC at Total concentration of MIT + BNP Qa + Qb): 20 µg/mL

C=O [HCHO, formaldehyde]
Qb/QB (Pseudomonas aeruginosa [3]): 1.00 | MIC (Pseudomonas aeruginosa [3]; only one biocide used, read-out: MIC value): 100 µg/mL | MIC (Pseudomonas aeruginosa [3]; read-out: MIC at HCHO concentration Qb): 100 µg/mL | MIC (Pseudomonas aeruginosa [3]; read-out: MIC at Total concentration of MIT + HCHO Qa + Qb): 100 µg/mL | Synergistic index Qa/QA + Qb/QB (Pseudomonas aeruginosa [3]): 1.00

Cn1sccc1=O [MIT, 2-methylisothiazolin-3-one]
MIC at MIT concentration Qa (Pseudomonas aeruginosa [3]): 60 ppm | MIC at Total concentration of MIT + HCHO Qa + Qb (Pseudomonas aeruginosa [3]): 60 ppm | Qa/QA (Pseudomonas aeruginosa [3]): 1.00 | Synergistic index Qa/QA + Qb/QB (Pseudomonas aeruginosa [3]): 1.00 | MIC value (Pseudomonas aeruginosa [3]; only one biocide used): 60 ppm | MIC at MIT concentration Qa (Pseudomonas aeruginosa [2]): 40 ppm | MIC at Total concentration of MIT + BNP Qa + Qb (Pseudomonas aeruginosa [2]): 40 ppm | Qa/QA (Pseudomonas aeruginosa [2]): 1.00 | Synergistic index Qa/QA + Qb/QB (Pseudomonas aeruginosa [2]): 1.00 | MIC value (Pseudomonas aeruginosa [2]; only one biocide employed): 40 ppm | MIC at MIT concentration Qa (Pseudomonas aeruginosa [4]): 40 ppm | MIC at Total concentration MIT + PMG Qa + Qb (Pseudomonas aeruginosa [4]): 40 ppm | Qa/QA (Pseudomonas aeruginosa [4]): 1.00 | Synergistic index Qa/QA + Qb/QB (Pseudomonas aeruginosa [4]): 1.00 | MIC value (Pseudomonas aeruginosa [4]): 40 ppm | MIC at MIT concentration Qa (Pseudomonas aeruginosa [5]; 72 h/25° C.): 40 ppm | MIC at Total concentration MIT + OPP Qa + Qb (Pseudomonas aeruginosa [5]; 72 h/25° C.): 40 ppm | Qa/QA (Pseudomonas aeruginosa [5]; 72 h/25° C.): 1.00 | Synergistic index Qa/QA + Qb/QB (Pseudomonas aeruginosa [5]; 72 h/25° C.): 1.00 | MIC value (Pseudomonas aeruginosa [5]; only one biocide employed, 72 h/25° C.): 40 ppm | Synergistic index Qa/QA + Qb/QB (Pseudomonas aeruginosa [6]): 1.00 | MIC at MIT concentration Qa (Pseudomonas aeruginosa [6]; 72 h/25° C.): 40 ppm | MIC at Total concentration MIT + ZnPy Qa + Qb (Pseudomonas aeruginosa [6]; 72 h/25° C.): 40 ppm | Qa/QA (Pseudomonas aeruginosa [6]; 72 h/25° C.): 1.00 | MIC value (Pseudomonas aeruginosa [6]; 72 h/25° C.): 40 ppm | MIC at MIT concentration Qa (Pseudomonas aeruginosa [7]): 60 ppm | MIC at Total concentration MIT + NaPy Qa + Qb (Pseudomonas aeruginosa [7]): 60 ppm | Qa/QA (Pseudomonas aeruginosa [7]): 1.00 | Synergistic index Qa/QA + Qb/QB (Pseudomonas aeruginosa [7]): 1.00 | MIC value (Pseudomonas aeruginosa [7]): 60 ppm | MIC at MIT concentration Qa (Pseudomonas aeruginosa [1]): 40 ppm | MIC at Total concentration MIT + BBIT Qa + Qb (Pseudomonas aeruginosa [1]): 40 ppm | Qa/QA (Pseudomonas aeruginosa [1]): 1.00 | Synergistic index Qa/QA + Qb/QB (Pseudomonas aeruginosa [1]): 1.00 | MIC value (Pseudomonas aeruginosa [1]): 40 ppm | MIC at MIT concentration Qa (Pseudomonas aeruginosa [8]): 50 ppm | MIC at Total concentration MIT + HMBIT Qa + Qb (Pseudomonas aeruginosa [8]): 50 ppm | Qa/QA (Pseudomonas aeruginosa [8]): 1.00 | Synergistic index Qa/QA + Qb/QB (Pseudomonas aeruginosa [8]): 1.00 | MIC value (Pseudomonas aeruginosa [8]): 50 ppm | Qa/QA (Pseudomonas aeruginosa [9]; MIT concentration in mixture at MIC / MIC of MIT alone (40 ppm), 48 h/25° C.): 1.00 | MIC at MIT concentration Qa (Pseudomonas aeruginosa [9]; MIT share of the MIC of the MIT + BAC mixture, Pseudomonas aeruginosa, incubation 48 h/25° C.): 40 ppm | MIC at Total concentration MIT + BAC Qa + Qb (Pseudomonas aeruginosa [9]; [10]): 40 ppm | Synergistic index Qa/QA + Qb/QB (Pseudomonas aeruginosa [9]; [10]): 1.00 | MIC value (Pseudomonas aeruginosa [9]; 48 h/25° C.): 40 ppm

[Na+].[O-][n+]1ccccc1[S-] [NaPy, sodium pyrithione]
MIC at NaPy concentration Qb (Pseudomonas aeruginosa [7]): 200 ppm | MIC at Total concentration MIT + NaPy Qa + Qb (Pseudomonas aeruginosa [7]): 200 ppm | Qb/QB (Pseudomonas aeruginosa [7]): 1.00 | Synergistic index Qa/QA + Qb/QB (Pseudomonas aeruginosa [7]): 1.00 | MIC value (Pseudomonas aeruginosa [7]): 200 ppm

Oc1ccccc1-c1ccccc1 [OPP, o-phenylphenol]
Qb/QB (Pseudomonas aeruginosa [5]; 72 h/25° C.): 1.00 | Synergistic index Qa/QA + Qb/QB (Pseudomonas aeruginosa [5]; 72 h/25° C.): 1.00 | MIC (Pseudomonas aeruginosa [5]; read-out: MIC at OPP concentration Qb): 750 µg/mL | MIC (Pseudomonas aeruginosa [5]; read-out: MIC at Total concentration MIT + OPP Qa + Qb): 750 µg/mL | MIC (Pseudomonas aeruginosa [5]; read-out: MIC value): 750 µg/mL

N-hydroxymethyl-1,2-benzoisothiazolin-3-one [HMBIT]
MIC at HMBIT concentration Qb (Pseudomonas aeruginosa [8]): 150 ppm | MIC at Total concentration MIT + HMBIT Qa + Qb (Pseudomonas aeruginosa [8]): 150 ppm | Qb/QB (Pseudomonas aeruginosa [8]): 1.00 | Synergistic index Qa/QA + Qb/QB (Pseudomonas aeruginosa [8]): 1.00 | MIC value (Pseudomonas aeruginosa [8]): 150 ppm

dimethylbenzylalkonium chloride [BAC]
Qb/QB (Pseudomonas aeruginosa [9]; BAC concentration in mixture at MIC / MIC of BAC alone (80 ppm), 48 h/25° C.): 1.00 | MIC at BAC concentration Qb (Pseudomonas aeruginosa [9]; BAC share of the MIC of the MIT + BAC mixture, Pseudomonas aeruginosa, incubation 48 h/25° C.): 80 ppm | MIC at Total concentration MIT + BAC Qa + Qb (Pseudomonas aeruginosa [9]; [10]): 80 ppm | Synergistic index Qa/QA + Qb/QB (Pseudomonas aeruginosa [9]; [10]): 1.00 | MIC value (Pseudomonas aeruginosa [9]; 48 h/25° C.): 80 ppm

polyhexamethylenebiguanide [PMG]
MIC at PMG concentration Qb (Pseudomonas aeruginosa [4]): 30 ppm | MIC at Total concentration MIT + PMG Qa + Qb (Pseudomonas aeruginosa [4]): 30 ppm | Qb/QB (Pseudomonas aeruginosa [4]): 1.00 | Synergistic index Qa/QA + Qb/QB (Pseudomonas aeruginosa [4]): 1.00 | MIC value (Pseudomonas aeruginosa [4]): 30 ppm

zinc pyrithione [ZnPy]
MIC at Total concentration MIT + ZnPy Qa + Qb (Pseudomonas aeruginosa [6]; 72 h/25° C.): 100 ppm | Qb/QB (Pseudomonas aeruginosa [6]; 72 h/25° C., QB = 100 ppm used as basis): 1.00 | Synergistic index Qa/QA + Qb/QB (Pseudomonas aeruginosa [6]; 72 h/25° C., ZnPy MIC of 100 ppm used as basis): 1.00 | MIC at ZnPy concentration Qb (Pseudomonas aeruginosa [6]; 72 h/25° C., for ZnPy alone 100 ppm used as the basis for the calculation): 100 ppm | MIC value (Pseudomonas aeruginosa [6]; 72 h/25° C.): over 100 ppm
